Laboratory results from US20120264735A1 (priority 2009, published 2012).

target: T1, c-Met kinase (recombinant c-Met) (Homo sapiens, UniProt P08581); experiment: In vitro kinase assay I (homogeneous time-resolved fluorescence tyrosine kinase assay); assay type: biochemical
T1 construct: 0.27 nM recombinant c-Met
Outline: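 Biotinylated peptide (0.5 μM) phosphorylated by 0.2 nM recombinant c-Met with 50 μM MgATP, 60 min at room temperature, pH 7.4, 5% DMSO. EDTA stop; HTRF read with Eu-anti-phosphotyrosine antibody and streptavidin-APC. IC50 from 4-parameter logistic fit.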

T1 sequence (P08581 25-1390): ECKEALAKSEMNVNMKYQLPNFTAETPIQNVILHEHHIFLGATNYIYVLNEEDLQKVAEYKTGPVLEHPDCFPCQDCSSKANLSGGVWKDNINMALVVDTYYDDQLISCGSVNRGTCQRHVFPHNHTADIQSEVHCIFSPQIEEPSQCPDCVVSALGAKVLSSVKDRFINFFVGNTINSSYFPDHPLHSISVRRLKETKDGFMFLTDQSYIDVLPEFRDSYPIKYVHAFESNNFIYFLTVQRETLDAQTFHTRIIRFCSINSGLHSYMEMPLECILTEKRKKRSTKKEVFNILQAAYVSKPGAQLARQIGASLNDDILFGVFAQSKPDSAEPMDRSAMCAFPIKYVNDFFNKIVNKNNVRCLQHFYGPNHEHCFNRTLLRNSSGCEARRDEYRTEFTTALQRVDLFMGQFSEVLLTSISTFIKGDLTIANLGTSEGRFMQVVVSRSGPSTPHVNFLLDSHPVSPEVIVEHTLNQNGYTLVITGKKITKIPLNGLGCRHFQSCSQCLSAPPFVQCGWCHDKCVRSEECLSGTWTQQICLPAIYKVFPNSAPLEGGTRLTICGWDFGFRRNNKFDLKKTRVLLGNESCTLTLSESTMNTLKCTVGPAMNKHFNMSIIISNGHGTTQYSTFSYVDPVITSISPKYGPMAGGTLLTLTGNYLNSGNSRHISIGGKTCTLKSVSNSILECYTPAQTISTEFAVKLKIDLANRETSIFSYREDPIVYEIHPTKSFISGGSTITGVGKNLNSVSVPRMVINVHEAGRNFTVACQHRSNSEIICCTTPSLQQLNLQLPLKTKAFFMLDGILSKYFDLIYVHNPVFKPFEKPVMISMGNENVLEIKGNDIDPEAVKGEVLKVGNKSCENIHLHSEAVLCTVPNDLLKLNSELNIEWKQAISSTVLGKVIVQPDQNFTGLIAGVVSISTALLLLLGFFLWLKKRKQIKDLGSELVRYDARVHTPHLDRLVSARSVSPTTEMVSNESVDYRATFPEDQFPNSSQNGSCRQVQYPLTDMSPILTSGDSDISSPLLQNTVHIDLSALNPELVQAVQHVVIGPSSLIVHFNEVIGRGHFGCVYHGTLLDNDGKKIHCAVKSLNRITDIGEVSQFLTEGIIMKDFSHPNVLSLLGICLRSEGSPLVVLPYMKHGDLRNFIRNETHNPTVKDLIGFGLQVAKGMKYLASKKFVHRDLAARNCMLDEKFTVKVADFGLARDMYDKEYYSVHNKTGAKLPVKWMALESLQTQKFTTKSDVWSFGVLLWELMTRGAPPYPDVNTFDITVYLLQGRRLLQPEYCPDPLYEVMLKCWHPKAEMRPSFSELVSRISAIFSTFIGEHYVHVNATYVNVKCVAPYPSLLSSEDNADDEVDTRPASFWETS

Structure (SMILES)	IC50
Cc1cc(COc2cnc(-c3cccc(Cc4nn(-c5cnn(C)c5)ccc4=O)c3)nc2)on1 [Example 286, 3-(3-{5-[(3-methylisoxazol-5-yl)methoxy]pyrimidin-2-yl}benzyl)-1-(1-methyl-1H-pyrazol-4-yl)pyridazin-4(1H)-one]	< 0.1 µM
Cc1cnccc1-c1cnc(-c2cccc(Cc3nn(-c4cnn(C)c4)ccc3=O)c2)nc1 [Example 416, 1-(1-methyl-1H-pyrazol-4-yl)-3-{3-[5-(3-methylpyridin-4-yl)pyrimidin-2-yl]benzyl}pyridazin-4(1H)-one]	< 0.1 µM
COC(=O)CCCn1cc(-n2ccc(=O)c(Cc3cccc(NC(=O)OCC(C)C)c3)n2)cn1 [Example 179, methyl 4-{4-[3-(3-{[(2-methylpropoxy)carbonyl]amino}benzyl)-4-oxopyridazin-1(4H)-yl]-1H-pyrazol-1-yl}butanoate]	< 0.1 µM
Cn1cc(-n2ccc(=O)c(Cc3cccc(-c4ncc(OC5CCOC5)cn4)c3)n2)cn1 (racemic) [Example 276, rac-1-(1-methyl-1H-pyrazol-4-yl)-3-{3-[5-(tetrahydrofuran-3-yloxy)pyrimidin-2-yl]benzyl}pyridazin-4(1H)-one]	< 0.1 µM
COCCN1CCC(COC(=O)Nc2cccc(Cc3nn(-c4cc(F)cc(F)c4)ccc3=O)c2)C1 (racemic) [Example 594, rac-[1-(2-methoxyethyl)pyrrolidin-3-yl]methyl-(3-{[1-(3,5-difluorophenyl)-4-oxo-1,4-dihydropyridazin-3-yl]methyl}phenyl)carbamate]	< 0.1 µM
Cn1cc(-n2ccc(=O)c(Cc3cccc(-c4ncc(C5C=CCO5)cn4)c3)n2)cn1 (racemic) [Example 174, rac-3-{3-[5-(2,5-Dihydrofuran-2-yl)pyrimidin-2-yl]benzyl}-1-(1-methyl-1H-pyrazol-4-yl)pyridazin-4(1H)-one]	< 0.1 µM
O=c1ccn(-c2ccc(F)c(F)c2)nc1Cc1cccc(-c2ncc(OC3CCOC3)cn2)c1 (single isomer, unassigned) [Example 350, 1-(3,4-difluorophenyl)-3-(3-{5-[(3S or R)-tetrahydrofuran-3-yloxy]pyrimidin-2-yl}benzyl)pyridazin-4(1H)-one]	< 0.1 µM
CCCCn1cnc(-c2cccc(Cc3nn(-c4cnn(C)c4)ccc3=O)c2)n1 [Example 76, 3-[3-(1-butyl-1H-1,2,4-triazol-3-yl)benzyl]-1-(1-methyl-1H-pyrazol-4-yl)pyridazin-4(1H)-one]	< 0.1 µM
CC(c1cccc(-c2ncc(O[C@@H]3CCNC[C@H]3F)cn2)c1)c1nn(-c2cnn(C)c2)ccc1=O (single isomer, unassigned) [Example 343, 3-{(1R or S)-1-[3-(5-{[(3R or S, 4R or S)-3-fluoropiperidin-4-yl]oxy}pyrimidin-2-yl)phenyl]ethyl}-1-(1-methyl-1H-pyrazol-4-yl)pyridazin-4(1H)-one]	0.1 to 1 µM
O=c1ccn(-c2cccnc2)nc1Cc1cccc(-c2ncccn2)c1 [Example 29, 1-pyridin-3-yl-3-(3-pyrimidin-2-ylbenzyl)pyridazin-4(1H)-one]	0.1 to 1 µM
CCC(=O)Nc1cnc(-c2cccc(Cc3nn(-c4cnn(C)c4)ccc3=O)c2)nc1 [Example 460, N-[2-(3-{[1-(1-methyl-1H-pyrazol-4-yl)-4-oxo-1,4-dihydro-pyridazin-3-yl]methyl}phenyl)pyrimidin-5-yl}propanamide]	< 0.1 µM
CCn1cnc(-c2cccc(Cc3nn(-c4cnn(CCOCc5ccccc5)c4)ccc3=O)c2)n1 [Example 88, 1-{1-[2-(benzyloxy)ethyl]-1H-pyrazol-4-yl}-3-[3-(1-ethyl-1H-1,2,4-triazol-3-yl)benzyl]pyridazin-4(1H)-one]	0.1 to 1 µM
CC(c1cccc(-c2ncc(O[C@@H]3CCNC[C@H]3F)cn2)c1)c1nn(-c2cnn(C)c2)ccc1=O (single isomer, unassigned) [Example 341, 3-{(1R or S)-1-[3-(5-{[(3R or S,4R or S)-3-Fluoropiperidin-4-yl]oxy}pyrimidin-2-yl)phenyl]ethyl}-1-(1-methyl-1H-pyrazol-4-yl)pyridazin-4(1H)-one]	< 0.1 µM
CCOC(C)(C)c1cnc(-c2cccc(Cc3nn(-c4cnn(C)c4)ccc3=O)c2)nc1 [Example 169, 3-{3-[5-(1-ethoxy-1-methylethyl)pyrimidin-2-yl]benzyl}-1-(1-methyl-1H-pyrazol-4-yl)pyridazin-4(1H)-one]	0.1 to 1 µM
CC(c1cccc(-c2ncc(C3CC3)cn2)c1)c1nn(-c2cnn(C)c2)ccc1=O (single isomer, unassigned) [Example 405, 3-{(1S or R)-1-[3-(5-cyclopropyl-pyrimidin-2-yl)phenyl]ethyl}-1-(1-methyl-1H-pyrazol-4-yl)pyridazin-4(1H)-one]	< 0.1 µM
CC(c1cccc(-c2ncc(-c3cnn(C)c3)cn2)c1)c1nn(-c2ccc(F)c(F)c2)ccc1=O (single isomer, unassigned) [Example 239, 1-(3,4-difluorophenyl)-3-[(1R or S)-1-{3-[5-(1-methyl-1H-pyrazol-4-yl)pyrimidin-2-yl]phenyl}ethyl]pyridazin-4(1H)-one]	< 0.1 µM
Cn1cc(-n2ccc(=O)c(Cc3cccc(NC(=O)OCC(F)(F)F)c3)n2)cn1 [Example 544, 2,2,2-trifluoroethyl (3-{[1-(1-methyl-1H-pyrazol-4-yl)-4-oxo-1,4-dihydropyridazin-3-yl]methyl}phenyl)carbamate]	< 0.1 µM
Cn1cc(-n2ccc(=O)c(Cc3cccc(-c4ncn(CC5CCOC5)n4)c3)n2)cn1 (racemic) [Example 79, rac-1-(1-methyl-1H-pyrazol-4-yl)-3-{3-[1-(tetrahydrofuran-3-ylmethyl)-1H-1,2,4-triazol-3-yl]benzyl}pyridazin-4(1H)-one]	< 0.1 µM
Cn1cc(-n2ccc(=O)c(Cc3cccc(NC(=O)OCC(F)F)c3)n2)cn1 [Example 576, 2,2-difluoroethyl (3-{[1-(1-methyl-1H-pyrazol-4-yl)-4-oxo-1,4-dihydropyridazin-3-yl]methyl}phenyl)carbamate]	< 0.1 µM
Cc1nc(COc2cnc(-c3cccc(Cc4nn(-c5cnn(C)c5)ccc4=O)c3)nc2)no1 [Example 281, 3-(3-{5-[(5-methyl-1,2,4-oxadiazol-3-yl)methoxy]pyrimidin-2-yl}benzyl)-1-(1-methyl-1H-pyrazol-4-yl)pridazin-4(1H)-one]	< 0.1 µM
Cn1cc(-n2ccc(=O)c(Cc3cccc(NC(=O)OCCN4CCOCC4=O)c3)n2)cn1 [Example 535, 2-(3-oxomorpholin-4-yl)ethyl (3-{[1-(1-methyl-1H-pyrazol-4-yl)-4-oxo-1,4-dihydropyridazin-3-yl]methyl}phenyl)carbamate]	< 0.1 µM
CCn1cc(-n2ccc(=O)c(Cc3cccc(-c4ncn(CC)n4)c3)n2)cn1 [Example 86, 1-(1-ethyl-1H-pyrazol-4-yl)-3-[3-(1-ethyl-1H-1,2,4-triazol-3-yl)benzyl]pyridazin-4(1H)-one]	< 0.1 µM
Cn1cc(-n2ccc(=O)c(Cc3cccc(-c4ncc(OCCO)cn4)c3)n2)cn1 [Example 264, 3-{3-[5-(2-hydroxyethoxy)pyrimidin-2-yl]benzyl}-1-(1-methyl-1H-pyrazol-4-yl)pyridazin-4(1H)-one]	< 0.1 µM

Continued, values first:

IC50	Structure (SMILES)
< 0.1 µM	CCn1cnc(-c2cccc(C(C)c3nn(-c4cnn(C)c4)ccc3=O)c2)n1 (single isomer, unassigned) [Example 681, 3-{(1R or S)-1-[3-(1-ethyl-1H-1,2,4-triazol-3-yl)phenyl]ethyl}-1-(1-methyl-1H-pyrazol-4-yl)pyridazin-4(1H)-one]
< 0.1 µM	COCCOCCOC(=O)Nc1cccc(Cc2nn(-c3cccc(C#N)c3)ccc2=O)c1 [Example 600, 2-(2-methoxyethoxy)ethyl (3-{[1-(3-cyanophenyl)-4-oxo-1,4-dihydropyridazin-3-yl]methyl}phenyl)carbamate]
0.1 to 1 µM	Cn1cnc(-c2cccc(Cc3nn(-c4cnn(C)c4)ccc3=O)c2)c1 [Example 673, 3-[3-(1-methyl-1H-imidazol-4-yl)benzyl]-1-(1-methyl-1H-pyrazol-4-yl)pyridazin-4(1H)-one]
0.1 to 1 µM	CC(C)COC(=O)Nc1cccc(Cc2nn(-c3cnn(CCCC(=O)NCC(C)O)c3)ccc2=O)c1 (racemic) [Example 706, rac-2-methylpropyl (3-{[1-(1-{4-[(2-hydroxypropyl)amino]-4-oxobutyl}-1H-pyrazol-4-yl)-4-oxo-1,4-dihydropyridazin-3-yl]methyl}phenyl) carbamate]
0.1 to 1 µM	CCOc1cnc(-c2cccc(Cc3nn(-c4cnn(C5CN(C)C5)c4)ccc3=O)c2)nc1 [Example 668, 3-[3-(5-Ethoxypyrimidin-2-yl)benzyl]-1-[1-(1-methylazetidin-3-yl)-1H-pyrazol-4-yl]pyridazin-4(1H)-one]
1 to 3 µM	O=c1ccn(-c2ccccc2)nc1Cc1cccc(-c2ccccn2)c1 [Example 671, 1-phenyl-3-(3-pyridin-2-ylbenzyl) pyridazin-4(1H)-one]
< 0.1 µM	CCOc1cnc(-c2cccc(Cc3nn(-c4ccc(C(=O)NCC(C)(C)O)c(F)c4)ccc3=O)c2)nc1 [Example 724, 4-{3-[3-(5-ethoxypyrimidin-2-yl)benzyl]-4-oxopyridazin-fluoro-N-(2-1(4H)-yl}-2-hydroxy-2-methylpropyl) benzamide]
< 0.1 µM	CCCn1cnc(-c2cccc(C(C)c3nn(-c4cnn(CC)c4)ccc3=O)c2)n1 (single isomer, unassigned) [Example 689]
0.1 to 1 µM	CCCn1cnc(-c2cccc(C(C)c3nn(-c4cnn(CC)c4)ccc3=O)c2)n1 (single isomer, unassigned) [Example 688, 1-(1-ethyl-1H-pyrazol-4-yl)-3-{(1S or R)-1-[3-(1-propyl-1H-1,2,4-triazol-3-yl)phenyl]ethyl} pyridazin-4(1H)-one]
< 0.1 µM	CCCc1nc(-c2cccc(Cc3nn(-c4cnn(C)c4)ccc3=O)c2)no1 [Example 740, 1-(1-methyl-1H-pyrazol-4-yl)-3-[3-(5-propyl-1,2,4-oxadiazol-3-yl)benzyl]pyridazin-4(1H)-one]
